Experimental data as given in patent publication US20130204033A1, “ANTIPROLIFERATIVE COMPOUNDS, CONJUGATES THEREOF, METHODS THEREFOR, AND USES THEREOF” (Medarex, Inc., priority 2009, published 2013).
Where two headings read alike, the source gives them in different places.

Key:
Assay type in all cases: cell-based, human
Nomo-1 = experiment: 3H thymidine proliferation assay, Nomo-1
Protocol: (§1) This example generally describes the procedures used to assay the antiproliferative activity of compounds of this invention or their conjugates. Human tumor cell lines were obtained from the American Type Culture Collection (ATCC), P.O. Box 1549, Manassas, Va. 20108, USA, and cultured according to instruction from the ATCC. Cells were seeded at 1.0×10^3 or 1.0×10^4 cells/well in 96-well plates for 3 h for ATP assays or ^3H thymidine assays, respectively. 1:3 serial dilutions of free (unconjugated) compounds or their conjugates were added to the wells. Plates were allowed to incubate for 24 to 72 h. The ^3H thymidine plates were pulsed with 1.0 μCi of ^3H-thymidine per well for the last 24 hours of the total incubation period, harvested, and read on a Top Count Scintillation Counter (Packard Instruments, Meriden, Conn.). ATP levels in the ATP plates were measured using the […]-GLO® Luminescent Cell Viability kit following the manufacturer's manual and read on a GLOMAX® 20/20 luminometer (both from Promega, Madison, Wis., USA). The EC50 values—the concentration at which an agent inhibits or reduces cell proliferation by 50% —were determined using PRISM™ software, version 4.0 (GraphPad Software, La Jolla, Calif., USA).
(§2) Using the ^3H thymidine or the ATP luminescence assay, or both, the activities of compounds of this invention were assayed against the following cancer cell lines: HCT-15 (colorectal cancer, multi-drug resistant (MDR)); Hep3B (liver cancer); LNCaP (prostate cancer, androgen receptor positive (AR^+)); MDA-MB-231 (breast cancer, estrogen receptor, progesterone receptor, and Her2 negative (triple negative)); A2058 (melanoma); U-87 MG (glioblastoma); NCI-H460 (NSCLC); A549 (NSCLC); HPAC (pancreatic cancer, primary); PC3 (prostate cancer, AR); BT474 (breast cancer, Her2 highly positive (Her2hi)); SKOV3 (ovarian cancer, Her2hi); 786-O (renal cancer); UO-31 (renal cancer, MDR); NCI-H740 (SCLC); DMS53 (SCLC); SK-BR3 (breast cancer, Her2hi); ZR-75 (breast cancer, estrogen receptor positive); OVCAR3 (ovarian cancer); HL-60 (APL); OVCAR8/Adr (ovarian cancer, MDR); CEM-Cl (ALL); Nomo-1 (AML); RPMI-8226 (MM)); Raji (lymphoma); SW-480 (colorectal cancer, metastatic); SW-620 (colorectal cancer); and H226 (lung cancer). (Not all compounds were assayed against all cell lines.)
(§3) Table 2 provides the data for proliferation assays using the ^3H thymidine method, with an incubation period of 72 h.

U-87 MG = experiment: ATP luminescence proliferation assay, U-87 MG
Protocol: as §1, §2
(§4) Table 3 provides the data for the ATP luminescence proliferation assays, with an incubation period of 48, 72, or 96 h, as noted.

OVCAR3 = experiment: 3H thymidine proliferation assay, OVCAR3
Protocol: as §1, §2, §3

DMS53 = experiment: ATP luminescence proliferation assay, DMS53
Protocol: as §1, §2, §4

HCT-15 = experiment: ATP luminescence proliferation assay, HCT-15
Protocol: as §1, §2, §4

H740 = experiment: 3H thymidine proliferation assay, H740
Protocol: as §1, §2, §3

CEM-Cl = experiment: ATP luminescence proliferation assay, CEM-C1
Protocol: as §1, §2, §4

SK-BR3 = experiment: ATP luminescence proliferation assay, SK-BR3
Protocol: as §1, §2, §4

Hep3B = experiment: ATP luminescence proliferation assay, Hep3B
Protocol: as §1, §2, §4

Raji = experiment: 3H thymidine proliferation assay, Raji
Protocol: as §1, §2, §3

NCI-H460 = experiment: 3H thymidine proliferation assay, NCI-H460
Protocol: as §1, §2, §3

ZR-75 = experiment: ATP luminescence proliferation assay, ZR-75
Protocol: as §1, §2, §4

A549 = experiment: ATP luminescence proliferation assay, A549
Protocol: as §1, §2, §4

[1] = Homo sapiens, NOMO-1, read-out: EC50, Nomo-1, 3H thymidine method, 72 h incubation
[2] = Homo sapiens, 72 h, read-out: EC50 U-87 MG (72 h), ATP luminescence, U-87 MG, 72 h incubation
[3] = Homo sapiens, OVCAR-3, read-out: EC50, OVCAR3, 3H thymidine method, 72 h incubation
[4] = Homo sapiens, HCT-15, 72 h, read-out: EC50 HCT-15 (72 h), ATP luminescence, HCT-15, 72 h incubation
[5] = Homo sapiens, read-out: EC50, H740, 3H thymidine method, 72 h incubation
[6] = Homo sapiens, CEM/C1, 72 h, read-out: EC50 CEM-C1 (72 h), ATP luminescence, CEM-C1, 72 h incubation
[7] = Homo sapiens, SK-BR-3, 48 h, read-out: EC50 SK-BR3 (48 h), ATP luminescence, SK-BR3, 48 h incubation
[8] = Homo sapiens, 48 h, read-out: EC50 Hep3B (48 h), ATP luminescence, Hep3B, 48 h incubation
[9] = Homo sapiens, Raji, read-out: EC50, Raji, 3H thymidine method, 72 h incubation
[10] = Homo sapiens, NCI-H460, read-out: EC50, NCI-H460, 3H thymidine method, 72 h incubation
[11] = Homo sapiens, ZR75, 48 h, read-out: EC50 ZR-75 (48 h), ATP luminescence, ZR-75, 48 h incubation
[12] = 3H thymidine method, 72 h incubation, read-out: EC50, Nomo-1
[13] = ATP luminescence, 72 h incubation, read-out: EC50 U-87 MG (72 h)
[14] = 3H thymidine method, 72 h incubation, read-out: EC50, OVCAR3
[15] = ATP luminescence, DMS53, 48 h incubation, read-out: EC50 DMS53 (48 h)
[16] = ATP luminescence, HCT-15, 48 h incubation, read-out: EC50 HCT-15 (48 h)
[17] = 3H thymidine method, 72 h incubation, read-out: EC50, H740
[18] = ATP luminescence, CEM-C1, 72 h incubation, read-out: EC50 CEM-C1 (72 h)
[19] = ATP luminescence, SK-BR3, 48 h incubation, read-out: EC50 SK-BR3 (48 h)
[20] = ATP luminescence, 48 h incubation, read-out: EC50 Hep3B (48 h)
[21] = 3H thymidine method, 72 h incubation, read-out: EC50, Raji
[22] = 3H thymidine method, 72 h incubation, read-out: EC50, NCI-H460
[23] = ATP luminescence, ZR-75, 48 h incubation, read-out: EC50 ZR-75 (48 h)
[24] = ATP luminescence, DMS53, 72 h incubation, read-out: EC50 DMS53 (72 h)
[25] = ATP luminescence, HCT-15, 72 h incubation, read-out: EC50 HCT-15 (72 h)
[26] = Homo sapiens, DMS-53, 48 h, read-out: EC50 DMS53 (48 h), ATP luminescence, DMS53, 48 h incubation
[27] = Homo sapiens, HCT-15, 48 h, read-out: EC50 HCT-15 (48 h), ATP luminescence, HCT-15, 48 h incubation

Row | Structure (SMILES) | EC50 (Nomo-1; [1]) [nM] | EC50 (U-87 MG; [2]) [nM] | EC50 (OVCAR3; [3]) [nM] | EC50 (H740; [5]) [nM] | EC50 (CEM-Cl; [6]) [nM] | EC50 (SK-BR3; [7]) [nM] | EC50 (Hep3B; [8]) [nM] | EC50 (Raji; [9]) [nM] | EC50 (NCI-H460; [10]) [nM] | EC50 (ZR-75; [11]) [nM] | EC50 (Nomo-1; [12]) [nM] | EC50 (U-87 MG; [13]) [nM] | EC50 (OVCAR3; [14]) [nM] | EC50 (H740; [17]) [nM] | EC50 (CEM-Cl; [18]) [nM] | EC50 (SK-BR3; [19]) [nM] | EC50 (Hep3B; [20]) [nM] | EC50 (Raji; [21]) [nM] | EC50 (NCI-H460; [22]) [nM] | EC50 (ZR-75; [23]) [nM] | further results
1 | CC[C@H](C)[C@H](NC(=O)[C@H]1CCCCN1C)C(=O)N(C)[C@H](C[C@@H](OC)c1nc(C(=O)N[C@@H](Cc2ccccc2)C(=O)N[C@@H](C)C(=O)OC)cs1)C(C)C [Compound 24] | 1.1 | 18 | 90 | 51 | 8.7 | 8.9 | 10 | 11 | > 100 | 8.4 | – | – | – | – | – | – | – | – | – | – | EC50 (DMS53; Homo sapiens, DMS-53, 72 h, read-out: EC50 DMS53 (72 h), ATP luminescence, DMS53, 72 h incubation): > 100 nM; EC50 (HCT-15; [4]): 188 nM
2 | CC[C@H](C)[C@H](NC(=O)[C@H]1CCCCN1C)C(=O)N(C)[C@H](C[C@@H](OC(C)=O)c1nc(C(=O)N[C@@H](Cc2ccc(N)cc2)C(=O)O)cs1)C(C)C [Compound 56] | – | – | – | – | – | – | – | – | – | – | > 100 | > 100 | > 100 | > 100 | > 100 | > 100 | > 100 | > 100 | > 100 | > 100 | EC50 (DMS53; [15]): > 100 nM; EC50 (HCT-15; [16]): > 3000 nM
3 | CC[C@H](C)[C@H](NC(=O)[C@H]1CCCCN1C)C(=O)N(C)[C@H](C[C@@H](OC)c1nc(C(=O)N[C@@H](Cc2ccccc2)C(=O)OC)cs1)C(C)C [Compound 16] | – | – | – | – | – | – | – | – | – | – | 1.8 | > 100 | > 100 | > 100 | 2.5 | 6.6 | – | 28 | > 100 | 11 | EC50 (DMS53; [15]): 50 nM; EC50 (HCT-15; [16]): 157 nM
4 | CC[C@H](C)[C@H](NC(=O)[C@H]1CCCCN1C)C(=O)N(COC(=O)CC(C)C)[C@H](C[C@@H](O)c1nc(C(=O)N[C@@H](Cc2ccccc2)C(=O)OC)cs1)C(C)C [Compound 28] | – | – | – | – | – | – | – | – | – | – | 0.2 | 18 | 3.1 | 5.8 | 11 | 7.8 | 17 | 13 | > 100 | 16 | EC50 (DMS53; [24]): 58 nM; EC50 (HCT-15; [25]): 132 nM
5 | CC[C@H](C)[C@H](NC(=O)[C@H]1CCCCN1C)C(=O)N(C)[C@H](C[C@@H](OC)c1nc(C(=O)N[C@H](CC(=O)OC)Cc2ccccc2)cs1)C(C)C [Compound 25] | 116 | 357 | 379 | 347 | 176 | > 3000 | 246 | 231 | 306 | 1000 | – | – | – | – | – | – | – | – | – | – | EC50 (DMS53; [26]): 366 nM; EC50 (HCT-15; [4]): 366 nM; EC50 (A549; Homo sapiens, A549, 48 h, read-out: EC50 A549 (48 h), ATP luminescence, A549, 48 h incubation): 111 nM
6 | CC[C@H](C)[C@H](NC(=O)[C@H]1CCCCN1C)C(=O)N(C)[C@H](C[C@@H](OC)c1nc(C(=O)NC(Cc2ccccc2)C[C@H](C)C(=O)O)cs1)C(C)C (stereo partly shown) [Compound 15] | 2.3 | 8.6 | > 100 | 2.3 | 2.6 | 3.9 | 6.3 | 0.47 | 2 | 13 | – | – | – | – | – | – | – | – | – | – | EC50 (DMS53; [26]): 32 nM; EC50 (HCT-15; [27]): 40 nM
7 | CCC[C@H](NC(=O)[C@H](Cc1ccccc1)NC(=O)c1csc([C@@H](C[C@H](C(C)C)N(C)C(=O)[C@@H](NC(=O)[C@H]2CCCCN2C)[C@@H](C)CC)OC)n1)C(=O)OC [Compound 19] | – | – | – | – | – | – | – | – | – | – | 1.3 | > 100 | 53 | 3.8 | 11 | 3.9 | 18 | 32 | > 100 | 20 | EC50 (DMS53; [24]): 87 nM; EC50 (HCT-15; [25]): 245 nM
8 | CC[C@H](C)[C@H](NC(=O)[C@H]1CCCCN1C)C(=O)N(COC(=O)CC(C)C)[C@H](C[C@@H](OC(C)=O)c1nc(C(=O)N[C@@H](Cc2ccccc2)C(=O)OC)cs1)C(C)C [Compound 29] | – | – | – | – | – | – | – | – | – | – | 0.0075 | 4.9 | 0.02 | 0.41 | 0.85 | 3.6 | 1.6 | 0.024 | 0.21 | 15 | EC50 (DMS53; [15]): 5.3 nM; EC50 (HCT-15; [25]): 4.5 nM; EC50 (A549; ATP luminescence, A549, 48 h incubation, read-out: EC50 A549 (48 h)): 3.9 nM
9 | CC[C@H](C)[C@H](NC(=O)[C@H]1CCCCN1C)C(=O)N(C)[C@H](C[C@@H](OC)c1nc(C(=O)N[C@@H](Cc2ccc(N)cc2)CC(C)C(=O)O)cs1)C(C)C (stereo partly shown) [Compound 51] | – | – | – | – | – | – | – | – | – | – | 3.5 | 7.6 | 2.5 | 37 | 4.8 | 13 | 3.8 | 1.5 | 7.2 | 19 | EC50 (DMS53; [24]): 46 nM; EC50 (HCT-15; [25]): 93 nM
10 | CCCC(NC(=O)c1csc([C@@H](C[C@H](C(C)C)N(C)C(=O)[C@@H](NC(=O)[C@H]2CCCCN2C)[C@@H](C)CC)OC)n1)C(=O)OC (stereo partly shown) [Compound 17] | 6.8 | 22 | > 100 | 32 | 26 | 24 | > 100 | 53 | > 100 | 24 | – | – | – | – | – | – | – | – | – | – | EC50 (DMS53; [26]): ~80 nM; EC50 (HCT-15; [27]): 443 nM
